Laboratory results: patent US20040058989A1, “Pharmaceutical composition containing citalopram” (H. Lundbeck A/S, priority 2001, published 2004)

Experiment: Particle size distribution by laser diffraction (Sympatec Helos)
Assay type: physicochemical
Description: As used herein, “particle size distribution” means the distribution of equivalent spherical diameters as determined by laser diffraction in a Sympatec Helos equipment. The particle size distributions for fillers and uncompacted citalopram are determined at 1 bar dispersive pressure, whereas the particle size distributions for compacted granulates are determined at 0.2 bar dispersive pressure in order to avoid deaggregation of the granules leading to erroneous results. “Median particle size”, correspondingly, means the median of said particle size distribution.

[1] = Sympatec Helos, 1 bar dispersive pressure for fillers and uncompacted citalopram, 0.2 bar for compacted granulates

With CN(C)CCCC1(c2ccc(F)cc2)OCc2cc(C#N)ccc21 (centres unmarked) [Citalopram HBr] the “Particle size distribution, quantile 10%” value [1] was 1.2 μm, the “Particle size distribution, quantile 50% (median particle size)” value [1] was 14.0 μm and the “Particle size distribution, quantile 90%” value [1] was 72.3 μm. The “Particle size distribution, quantile 95%” value [1] was 97.0 μm and the Particle size (product of the process used for preparation of citalopram hydrobromide, general statement) was 2-20 μm.
